# Biological target: T1, human full-length HSP90 (Homo sapiens, UniProt P08238)
# T1 construct: E. coli expressed human full-length HSP90 protein; made in house; host or cells: E. coli
# Experiment: Fluorescence Polarisation Assay (displacement of fluorescein-labelled probe RBT0045864-FAM)
# Assay type: binding
# Details: Fluorescence Polarisation Assay, activity range
# Excerpt: A Fluorescence Polarization_assay was also employed for the evaluation of some of the compounds of the Examples:
# Fluorescence polarization {also known as fluorescence anisotropy} measures the rotation of a fluorescing species in solution, where the larger molecule the more polarized the fluorescence emission.
# When the fluorophore is excited with polarized light, the emitted light is also polarized. The molecular size is proportional to the polarization of the fluorescence emission.
# Test compound is added to the assay plate, left to equilibrate and the anisotropy measured again. Any change in anisotropy is due to competitive binding of compound to HSP90, thereby releasing probe.
# Stored at room temperature. • 3) BSA (bovine serum albumen) 10 mg/ml (New England Biolabs # B9001S) • 4) 20 mM probe in 100 % DMSO stock concentration. Stored in the dark at RT. Working concentration is 200 nM diluted in AR water and stored at 4 °C.
# 1) Add 100µl 1x buffer to wells 11A and 12A (=FP BLNK) 2) Prepare assay mix - all reagents are kept on ice with a lid on the bucket as the probe is light-sensitive.
# This gives 2.5 mM {50x} stock cpd - assuming cpds 20 mM. • 4) Repeat for wells A2 to A10. Control in columns 11 and 12. • 5) Transfer 5 µl from row A to row B- not column 12. Mix well. • 6) Transfer 5 µl from row B to row C. […] Add 2 µl of 100mM standard cpd to wells B12 - H12 {is positive control } • 13)The Z' factor is calculated from zero controls and positive wells.
# T1 sequence (P08238 whole entry): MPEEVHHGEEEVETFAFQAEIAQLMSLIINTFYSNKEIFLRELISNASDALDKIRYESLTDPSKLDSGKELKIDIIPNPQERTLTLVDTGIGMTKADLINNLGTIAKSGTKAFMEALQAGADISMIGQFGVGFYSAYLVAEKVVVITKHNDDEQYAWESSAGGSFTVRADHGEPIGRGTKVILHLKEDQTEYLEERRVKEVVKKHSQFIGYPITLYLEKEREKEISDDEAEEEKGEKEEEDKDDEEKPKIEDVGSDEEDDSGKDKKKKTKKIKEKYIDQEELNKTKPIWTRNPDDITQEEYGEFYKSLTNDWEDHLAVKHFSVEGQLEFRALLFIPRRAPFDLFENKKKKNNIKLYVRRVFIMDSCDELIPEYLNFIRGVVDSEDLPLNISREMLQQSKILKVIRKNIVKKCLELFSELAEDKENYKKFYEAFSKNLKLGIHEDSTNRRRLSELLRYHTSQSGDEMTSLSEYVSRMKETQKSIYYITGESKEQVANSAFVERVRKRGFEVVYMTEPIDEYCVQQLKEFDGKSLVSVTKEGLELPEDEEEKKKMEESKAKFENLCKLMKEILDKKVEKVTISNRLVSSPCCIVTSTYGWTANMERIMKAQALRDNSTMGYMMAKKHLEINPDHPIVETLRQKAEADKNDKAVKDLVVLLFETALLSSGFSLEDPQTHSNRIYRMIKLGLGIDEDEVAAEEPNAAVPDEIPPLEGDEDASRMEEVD
row,IC50 [µM],SMILES
1,< 10,CCNC(=O)c1noc(-c2cc(-c3ccc(F)cc3)c(O)cc2O)c1-c1ccc(F)cc1 [Example 71]
2,< 10,CCNC(=O)c1noc(-c2cc(-c3ccc(F)cc3)c(O)cc2O)c1-c1ccc(CN2CCCCC2)cc1 [Example 72]
3,< 10,CCNC(=O)c1noc(-c2cc(-c3ccc(F)cc3)c(O)cc2O)c1-c1ccc(CN2CCOCC2)cc1 [Example 73]
4,< 10,CCNC(=O)c1noc(-c2cc(-c3ccccc3)c(O)cc2O)c1-c1ccc(CN2CCOCC2)cc1 [Example 74]
5,< 10,"COc1ccc(-c2c(-c3cc(Br)c(O)cc3O)noc2C)cc1 [Example 76, 4-Bromo-6-[4-(4-methoxy-phenyl)-5-methyl-isoxazol-3-yl]-benzene-1,3-diol]"
6,> 10,Cc1nc(-c2c(-c3ccc(O)cc3O)noc2C(F)(F)F)cs1 [Example 76A]

row,SMILES,IC50 [µM]
1,CCNC(=O)c1noc(-c2cc(CCc3ccc(F)cc3)c(O)cc2O)c1-c1ccc(CN2CCCCC2)cc1 [Example 69],< 10
2,CCNC(=O)c1noc(-c2cc(CCc3ccc(F)cc3)c(O)cc2O)c1-c1ccc(CN2CCOCC2)cc1 [Example 70],< 10
3,CCNC(=O)c1noc(-c2cc(CCc3cccc(F)c3)c(O)cc2O)c1-c1ccc(CN2CCOCC2)cc1 [Example 75],< 10
4,"CCNC(=O)c1noc(-c2cc(C(C)(C)C)c(O)cc2O)c1-c1ccc(CN2CCOCC2)cc1 [Example 77, 5-(5-tert-Butyl-2,4-dihydroxy-phenyl)-4-(4-morpholin-4-ylmethyl-phenyl)-isoxazole-3-carboxylic acid ethylamide]",< 10

# Same assay, conditions: table names no assay; parent examples tested in fluorescence polarization assay
row,IC50 [µM],SMILES
1,< 10,CCNC(=O)c1noc(-c2cc(CCc3cccc(C)c3)c(O)cc2O)c1-c1ccc(CN2CCOCC2)cc1 [Example 75c]
2,< 10,CCNC(=O)c1noc(-c2cc(-c3ccccc3F)c(O)cc2O)c1-c1ccc(CN2CCN(C)CC2)cc1 [Example 75g]
3,< 10,CCNC(=O)c1noc(-c2cc(-c3ccccc3)c(O)cc2O)c1-c1ccc(CN(CC)CC)cc1 [Example 75p]
4,< 10,CCNC(=O)c1noc(-c2cc(-c3ccc(F)cc3)c(O)cc2O)c1-c1ccc(CN2CCN(C)CC2)cc1 [Example 75q]
5,< 10,CCNC(=O)c1noc(-c2cc(-c3ccccc3C)c(O)cc2O)c1-c1ccc(CN2CCN(C)CC2)cc1 [Example 75s]
6,< 10,CCNC(=O)c1noc(-c2cc(-c3c(C)noc3C)c(O)cc2O)c1-c1ccc(CN2CCCCC2)cc1 [Example 75v]
7,< 10,CCNC(=O)c1onc(-c2cc(Cl)c(O)cc2O)c1-c1ccc(OC)cc1 [Example 76B]
8,< 10,CCNC(=O)c1onc(-c2cc(Cl)c(O)cc2O)c1-c1ccc(CN2CCOCC2)cc1 [Example 76C]
9,< 10,CCNC(=O)c1noc(-c2cc(C(C)(C)C)c(O)cc2O)c1-c1ccc(CN(CC)CC)cc1 [Example 77b]
10,< 10,CCNC(=O)c1noc(-c2cc(C(C)(C)C)c(O)cc2O)c1-c1ccc(CN2CCCCC2)cc1 [Example 77c]
11,< 10,CCNC(=O)c1noc(-c2cc(C(C)(C)C)c(O)cc2O)c1-c1ccc(CN2CCN(C)CC2)cc1 [Example 77d]
12,< 10,CCNC(=O)c1noc(-c2cc(C(C)(C)C)c(O)cc2O)c1-c1ccc(F)cc1 [Example 77e]
13,< 10,CCNC(=O)c1noc(-c2cc(C(C)(C)C)c(O)cc2O)c1-c1ccc(OC)cc1 [Example 77f]
14,< 10,CC(C)NC(=O)c1noc(-c2cc(C(C)C)c(O)cc2O)c1-c1ccc(CN2CCC(F)(F)CC2)cc1 [Example 78aa]
15,< 10,CCNC(=O)c1noc(-c2cc(C(C)C)c(O)cc2O)c1-c1ccc(CNCC(F)(F)F)cc1 [Example 78ab]
16,< 10,CCNC(=O)c1noc(-c2cc(C(C)C)c(O)cc2O)c1-c1ccc(CN2CCC(F)(F)CC2)cc1 [Example 78ac]

row,IC50 [µM],SMILES
1,< 10,CCNC(=O)c1noc(-c2cc(C(C)C)c(O)cc2O)c1-c1ccc(CNCC(=O)NC(C)C)cc1 [Example 78ad]
2,< 10,CCNC(=O)c1noc(-c2cc(C(C)C)c(O)cc2O)c1-c1ccc(CN2CCC(N)CC2)cc1 [Example 78af]
3,< 10,CCNC(=O)CNCc1ccc(-c2c(C(=O)NCC)noc2-c2cc(C(C)C)c(O)cc2O)cc1 [Example 78ah]
4,< 10,CCNC(=O)c1noc(-c2cc(C(C)C)c(O)cc2O)c1-c1ccc(CN(CC)CC)cc1 [Example 78b]
5,< 10,CCNC(=O)c1noc(-c2cc(C(C)C)c(O)cc2O)c1-c1ccc(CN2CCN(C)CC2)cc1 [Example 78c]
6,< 10,CCNC(=O)c1noc(-c2cc(C(C)C)c(O)cc2O)c1-c1ccc(CNC(C)C)cc1 [Example 78e]
7,< 10,CCNC(=O)c1noc(-c2cc(C(C)C)c(O)cc2O)c1-c1ccc(CNC(C)(C)C)cc1 [Example 78l]
8,< 10,CCNC(=O)c1noc(-c2cc(C(C)C)c(O)cc2O)c1-c1ccc(CNCCOC)cc1 [Example 78m]
9,< 10,CCNC(=O)c1noc(-c2cc(C(C)C)c(O)cc2O)c1-c1ccc(CNCCN(CC)CC)cc1 [Example 78n]
10,< 10,CCNC(=O)c1noc(-c2cc(C(C)C)c(O)cc2O)c1-c1ccc(CN2CCNCC2)cc1 [Example 78p]
11,< 10,CCNC(=O)c1noc(-c2cc(C(C)C)c(O)cc2O)c1-c1ccc(CNC2CCNCC2)cc1 [Example 78q]
12,< 10,CC(C)NC(=O)c1noc(-c2cc(C(C)C)c(O)cc2O)c1-c1ccc(CN2CCOCC2)cc1 [Example 78s]
13,< 10,CC(C)NC(=O)c1noc(-c2cc(C(C)C)c(O)cc2O)c1-c1ccc(CN2CCN(C)CC2)cc1 [Example 78t]
14,< 10,CCN(CC)Cc1ccc(-c2c(C(=O)NC(C)C)noc2-c2cc(C(C)C)c(O)cc2O)cc1 [Example 78u]
15,< 10,CC(C)NC(=O)c1noc(-c2cc(C(C)C)c(O)cc2O)c1-c1ccc(CNC2CCCCC2)cc1 [Example 78w]
16,< 10,CC(C)NC(=O)c1noc(-c2cc(C(C)C)c(O)cc2O)c1-c1ccc(CNC2CCCC2)cc1 [Example 78y]

row,SMILES,IC50 [µM]
1,CCNC(=O)c1noc(-c2cc(CCc3cccc(C)c3)c(O)cc2O)c1-c1ccc(CN2CCCCC2)cc1 [Example 75a],< 10
2,CCNC(=O)c1noc(-c2cc(-c3ccccc3)c(O)cc2O)c1-c1ccc(CN2CCCCC2)cc1 [Example 75b],< 10
3,CCNC(=O)c1noc(-c2cc(-c3ccccc3F)c(O)cc2O)c1-c1ccc(CN2CCCCC2)cc1 [Example 75d],< 10
4,CCNC(=O)c1noc(-c2cc(CCc3cccc(F)c3)c(O)cc2O)c1-c1ccc(CN2CCCCC2)cc1 [Example 75e],< 10
5,CCNC(=O)c1noc(-c2cc(-c3ccccc3F)c(O)cc2O)c1-c1ccc(CN2CCOCC2)cc1 [Example 75f],< 10
6,CCNC(=O)c1noc(-c2cc(CCc3cccc(F)c3)c(O)cc2O)c1-c1ccc(CN(CC)CC)cc1 [Example 75h],< 10
7,CCNC(=O)c1noc(-c2cc(-c3ccccc3C)c(O)cc2O)c1-c1ccc(CN2CCCCC2)cc1 [Example 75m],< 10
8,CCNC(=O)c1noc(-c2cc(-c3ccc(F)cc3)c(O)cc2O)c1-c1ccc(CN(CC)CC)cc1 [Example 75r],< 10
9,CCNC(=O)c1noc(-c2cc(-c3ccccc3C)c(O)cc2O)c1-c1ccc(CN(CC)CC)cc1 [Example 75t],< 10
10,CCNC(=O)c1noc(-c2cc(C(C)(C)C)c(O)cc2O)c1-c1ccc(CN2CCOCC2)cc1 [Example 77a],< 10
